Experimental data as given in ChEMBL document CHEMBL1201862, “PubChem BioAssay data set” (2004).
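Interpolation was linear, between the two tested concentrations surrounding the appropriate level; five concentrations were tested over 48 hours in 96-well plates. Abbreviation: GI50, concentration required for 50% inhibition of growth.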 The source made the active and inactive calls. Cut-off read from the data, not from the text of the source: active = GI50 up to about 1.1 µM and inactive = higher.

Legend:
Assay in all cases: inhibition of tumour cell growth, NCI panel, 48 h
[1] = test system: 786-0
[2] = test system: A498
[3] = test system: A549
[4] = test system: ACHN
[5] = test system: BT-549
[6] = test system: CAKI-1
[7] = test system: CCRF-CEM
[8] = test system: COLO 205
[9] = test system: DU-145
[10] = test system: EKVX
[11] = test system: HCC 2998
[12] = test system: HCT-116
[13] = test system: HCT-15
[14] = test system: HL-60
[15] = test system: HOP-62
[16] = test system: HOP-92
[17] = test system: HT-29
[18] = test system: Hs-578T
[19] = test system: IGROV-1
[20] = test system: K562
[21] = test system: KM12
[22] = test system: LOX IMVI
[23] = test system: M14
[24] = test system: MCF7
[25] = test system: MDA-MB-231
[26] = test system: MDA-MB-435
[27] = test system: MDA-N
[28] = test system: MOLT-4
[29] = test system: Malme-3M
[30] = test system: NCI-H226
[31] = test system: NCI-H23
[32] = test system: NCI-H460
[33] = test system: NCI-H522
[34] = test system: NCI/ADR-RES
[35] = test system: OVCAR-3
[36] = test system: OVCAR-4
[37] = test system: OVCAR-5
[38] = test system: OVCAR-8
[39] = test system: PC-3
[40] = test system: RPMI-8226
[41] = test system: RXF 393
[42] = test system: SF-268
[43] = test system: SF-295
[44] = test system: SF-539
[45] = test system: SK-MEL-28
[46] = test system: SK-MEL-2
[47] = test system: SK-MEL-5
[48] = test system: SK-OV-3
[49] = test system: SN12C
[50] = test system: SNB-19
[51] = test system: SNB-75
[52] = test system: SR
[53] = test system: SW-620
[54] = test system: T47D
[55] = test system: TK-10
[56] = test system: U-251
[57] = test system: UACC-257
[58] = test system: UACC-62
[59] = test system: UO-31

CCOC(=O)C(NC(=O)CC)(N1CCN(c2cc3c(cc2F)c(=O)c(C(=O)O)cn3C2CC2)CC1)C(F)(F)F (stereo unspecified)
GI50 [1]: > 100 µM (inactive)
GI50 [2]: > 100 µM (inactive)
GI50 [3]: > 100 µM (inactive)
GI50 [4]: > 100 µM (inactive)
GI50 [5]: > 100 µM (inactive)
GI50 [6]: > 100 µM (inactive)
GI50 [7]: 91.8 µM (inactive)
GI50 [8]: > 100 µM (inactive)
GI50 [9]: > 100 µM (inactive)
GI50 [10]: > 100 µM (inactive)
GI50 [11]: > 100 µM (inactive)
GI50 [12]: > 100 µM (inactive)
GI50 [13]: > 100 µM
GI50 [14]: > 100 µM (inactive)
GI50 [15]: > 100 µM (inactive)
GI50 [16]: 70.8 µM (inactive)
GI50 [17]: > 100 µM (inactive)
GI50 [18]: > 100 µM (inactive)
GI50 [19]: > 100 µM (inactive)
GI50 [20]: > 100 µM (inactive)
GI50 [21]: > 100 µM (inactive)
GI50 [22]: > 100 µM (inactive)
GI50 [23]: > 100 µM (inactive)
GI50 [24]: > 100 µM (inactive)
GI50 [25]: 52.2 µM (inactive)
GI50 [26]: > 100 µM (inactive)
GI50 [27]: > 100 µM (inactive)
GI50 [28]: > 100 µM (inactive)
GI50 [29]: > 100 µM (inactive)
GI50 [30]: > 100 µM (inactive)
GI50 [31]: > 100 µM (inactive)
GI50 [32]: > 100 µM (inactive)
GI50 [33]: > 100 µM (inactive)
GI50 [34]: > 100 µM (inactive)
GI50 [35]: > 100 µM (inactive)
GI50 [36]: > 100 µM (inactive)
GI50 [37]: > 100 µM (inactive)
GI50 [38]: > 100 µM (inactive)
GI50 [39]: > 100 µM (inactive)
GI50 [40]: > 100 µM (inactive)
GI50 [41]: > 100 µM (inactive)
GI50 [42]: > 100 µM (inactive)
GI50 [43]: > 100 µM (inactive)
GI50 [44]: > 100 µM (inactive)
GI50 [45]: > 100 µM (inactive)
GI50 [46]: > 100 µM (inactive)
GI50 [47]: > 100 µM (inactive)
GI50 [48]: > 100 µM (inactive)
GI50 [49]: > 100 µM (inactive)
GI50 [50]: > 100 µM (inactive)
GI50 [51]: > 100 µM (inactive)
GI50 [52]: > 100 µM (inactive)
GI50 [53]: > 100 µM (inactive)
GI50 [54]: > 100 µM (inactive)
GI50 [55]: > 100 µM (inactive)
GI50 [56]: 92.9 µM (inactive)
GI50 [57]: > 100 µM (inactive)
GI50 [58]: > 100 µM (inactive)
GI50 [59]: > 100 µM (inactive)

c1ccc2c(Cc3[nH]c4ccccc4c3Cc3c[nH]c4ccccc34)c[nH]c2c1
GI50 [1]: 1.73 µM (inactive)
GI50 [2]: 2.39 µM (inactive)
GI50 [3]: 3.1 µM (inactive)
GI50 [4]: 14.5 µM (inactive)
GI50 [5]: 5.57 µM (inactive)
GI50 [6]: 2.74 µM (inactive)
GI50 [7]: 2.16 µM (inactive)
GI50 [8]: 2.07 µM (inactive)
GI50 [9]: 1.8 µM (inactive)
GI50 [10]: 2.61 µM (inactive)
GI50 [11]: 1.64 µM (inactive)
GI50 [12]: 1.69 µM (inactive)
GI50 [13]: 2.76 µM
GI50 [14]: 1.86 µM (inactive)
GI50 [15]: 3.38 µM (inactive)
GI50 [16]: 3.9 µM (inactive)
GI50 [17]: 2.52 µM (inactive)
GI50 [18]: 1.47 µM (inactive)
GI50 [19]: 1.67 µM (inactive)
GI50 [20]: 2.33 µM (inactive)
GI50 [21]: 2.09 µM (inactive)
GI50 [22]: 2.19 µM (inactive)
GI50 [23]: 2.36 µM (inactive)
GI50 [24]: 11.2 µM (inactive)
GI50 [25]: 2.12 µM (inactive)
GI50 [26]: 2.08 µM (inactive)
GI50 [27]: 2.16 µM (inactive)
GI50 [28]: 1.66 µM (inactive)
GI50 [29]: 2.05 µM (inactive)
GI50 [30]: 6.08 µM (inactive)
GI50 [31]: 2.1 µM (inactive)
GI50 [32]: 1.91 µM (inactive)
GI50 [33]: 1.8 µM (inactive)
GI50 [34]: 2.55 µM (inactive)
GI50 [35]: 3.16 µM (inactive)
GI50 [36]: 3.06 µM (inactive)
GI50 [37]: 2.85 µM (inactive)
GI50 [38]: 4.09 µM (inactive)
GI50 [39]: 2.38 µM (inactive)
GI50 [40]: 2.74 µM (inactive)
GI50 [41]: 1.94 µM (inactive)
GI50 [42]: 1.23 µM (inactive)
GI50 [43]: 4.3 µM (inactive)
GI50 [44]: 2.56 µM (inactive)
GI50 [45]: 6.21 µM (inactive)
GI50 [46]: 2.36 µM (inactive)
GI50 [47]: 2.17 µM (inactive)
GI50 [48]: 3.56 µM (inactive)
GI50 [49]: 1.77 µM (inactive)
GI50 [50]: 4.93 µM (inactive)
GI50 [51]: 2.48 µM (inactive)
GI50 [52]: 2.87 µM (inactive)
GI50 [53]: 1.74 µM (inactive)
GI50 [54]: 2.93 µM (inactive)
GI50 [55]: 2.85 µM (inactive)
GI50 [56]: 2.88 µM (inactive)
GI50 [57]: 2.71 µM (inactive)
GI50 [58]: 11 µM (inactive)
GI50 [59]: 3.35 µM (inactive)

NC1CC(=O)c2c(I)sc(I)c21 (stereo unspecified)
GI50 [1]: 11.2 µM (inactive)
GI50 [2]: 20 µM (inactive)
GI50 [3]: 29.8 µM (inactive)
GI50 [4]: 20.9 µM (inactive)
GI50 [5]: 18.4 µM (inactive)
GI50 [6]: 11.6 µM (inactive)
GI50 [7]: 3.27 µM (inactive)
GI50 [8]: 14.9 µM (inactive)
GI50 [9]: 24 µM (inactive)
GI50 [10]: 19.9 µM (inactive)
GI50 [11]: 22 µM (inactive)
GI50 [12]: 12.4 µM (inactive)
GI50 [13]: 9.31 µM
GI50 [14]: 4.24 µM (inactive)
GI50 [15]: 19.1 µM (inactive)
GI50 [16]: 22.8 µM (inactive)
GI50 [17]: 20.2 µM (inactive)
GI50 [18]: 30.3 µM (inactive)
GI50 [19]: 15.2 µM (inactive)
GI50 [20]: 8.95 µM (inactive)
GI50 [21]: 15.4 µM (inactive)
GI50 [22]: 13.3 µM (inactive)
GI50 [23]: 27.2 µM (inactive)
GI50 [24]: 25.4 µM (inactive)
GI50 [25]: 20 µM (inactive)
GI50 [26]: 16.4 µM (inactive)
GI50 [27]: 19.7 µM (inactive)
GI50 [28]: 12.1 µM (inactive)
GI50 [29]: 13.7 µM (inactive)
GI50 [30]: 19.1 µM (inactive)
GI50 [31]: 17.1 µM (inactive)
GI50 [32]: 17.7 µM (inactive)
GI50 [33]: 7.69 µM (inactive)
GI50 [34]: 26.9 µM (inactive)
GI50 [35]: 20 µM (inactive)
GI50 [36]: 20.1 µM (inactive)
GI50 [37]: 24.1 µM (inactive)
GI50 [38]: 20.6 µM (inactive)
GI50 [39]: 18.7 µM (inactive)
GI50 [40]: 4.41 µM (inactive)
GI50 [41]: 21.4 µM (inactive)
GI50 [42]: 21 µM (inactive)
GI50 [43]: 21 µM (inactive)
GI50 [44]: 8.89 µM (inactive)
GI50 [45]: 21.4 µM (inactive)
GI50 [46]: 17.9 µM (inactive)
GI50 [47]: 27.6 µM (inactive)
GI50 [48]: 44.5 µM (inactive)
GI50 [49]: 27.3 µM (inactive)
GI50 [50]: 23.8 µM (inactive)
GI50 [51]: 20.6 µM (inactive)
GI50 [52]: 13.4 µM (inactive)
GI50 [53]: 11.6 µM (inactive)
GI50 [54]: 46.2 µM (inactive)
GI50 [55]: 19 µM (inactive)
GI50 [56]: 9.79 µM (inactive)
GI50 [57]: 19.8 µM (inactive)
GI50 [58]: 16.7 µM (inactive)
GI50 [59]: 19.2 µM (inactive)

CN(C)c1ccc(/C=c2\c3cc([N+](=O)[O-])ccc3n3c2cc(-c2ccccc2)[n+]3C)cc1
GI50 [1]: 3.31 µM (inactive)
GI50 [2]: 2.28 µM (inactive)
GI50 [3]: 2.94 µM (inactive)
GI50 [4]: 5.51 µM (inactive)
GI50 [5]: 1.23 µM (inactive)
GI50 [6]: 7.66 µM (inactive)
GI50 [7]: 0.601 µM (active)
GI50 [8]: 0.297 µM (active)
GI50 [9]: 1.95 µM (inactive)
GI50 [10]: 0.998 µM (active)
GI50 [11]: 2.28 µM (inactive)
GI50 [12]: 0.885 µM (active)
GI50 [13]: 15.5 µM
GI50 [14]: 0.292 µM (active)
GI50 [15]: 2.04 µM (inactive)
GI50 [16]: 1.18 µM (inactive)
GI50 [17]: 1.52 µM (inactive)
GI50 [18]: 1.62 µM (inactive)
GI50 [19]: 0.964 µM (active)
GI50 [20]: 0.265 µM (active)
GI50 [21]: 1.04 µM (active)
GI50 [22]: 1.57 µM (inactive)
GI50 [23]: 1 µM (active)
GI50 [24]: 0.791 µM (active)
GI50 [25]: 1.73 µM (inactive)
GI50 [26]: 0.531 µM (active)
GI50 [27]: 0.437 µM (active)
GI50 [28]: 1.75 µM (inactive)
GI50 [29]: 0.55 µM (active)
GI50 [30]: 2.75 µM (inactive)
GI50 [31]: 2.75 µM (inactive)
GI50 [32]: 3.13 µM (inactive)
GI50 [33]: 0.497 µM (active)
GI50 [34]: 39.8 µM (inactive)
GI50 [35]: 1.46 µM (inactive)
GI50 [36]: 2.17 µM (inactive)
GI50 [37]: 3.63 µM (inactive)
GI50 [38]: 1.45 µM (inactive)
GI50 [39]: 1.91 µM (inactive)
GI50 [40]: 0.264 µM (active)
GI50 [41]: 1.06 µM (active)
GI50 [42]: 0.923 µM (active)
GI50 [43]: 2.32 µM (inactive)
GI50 [44]: 0.822 µM (active)
GI50 [45]: 0.948 µM (active)
GI50 [46]: 0.521 µM (active)
GI50 [47]: 0.318 µM (active)
GI50 [48]: 3.92 µM (inactive)
GI50 [49]: 0.454 µM (active)
GI50 [50]: 0.925 µM (active)
GI50 [51]: 1.07 µM (active)
GI50 [52]: 0.29 µM (active)
GI50 [53]: 0.836 µM (active)
GI50 [54]: 0.458 µM (active)
GI50 [55]: 2.64 µM (inactive)
GI50 [56]: 0.327 µM (active)
GI50 [57]: 0.918 µM (active)
GI50 [58]: 0.678 µM (active)
GI50 [59]: 7.41 µM (inactive)
